Test results published in US9133207B2, “Tetrandrine derivatives with substituted 5-carbon, preparation method and use thereof” (Hangzhou Bensheng Pharmaceutical Co., Ltd., priority 2011, dated 2015).
≈ marks a conversion by molar mass, not a printed value.

Experiments:
[1] = test system: RPMI8226 (multiple myeloma); experiment: Multiple myeloma cell growth inhibition, MTT, 72 h (Example 6); format: cell-based, human; conditions: Homo sapiens, RPMI-8226; 72 h, MTT, RPMI8226
How it was run: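 RPMI8226 cells (6000 per well) in RPMI 1640 with 10% FBS were exposed to a range of tetrandrine derivative concentrations for 72 h at 37 °C under 5% CO2. Viable cell concentration was then measured by MTT.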

[2] = test system: NB4 (acute promyelocytic leukemia, AML); experiment: Leukemia cell growth inhibition, MTT, 72 h (Example 5); format: cell-based, human; conditions: Homo sapiens; 72 h, MTT
How it was run: (§1)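 6000 cells/well in RPMI 1640 with 10% FBS exposed to graded derivative concentrations for 72 h at 37 °C, 5% CO2. Viable cell concentration then measured by MTT.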

[3] = test system: K562/adr (drug-resistant, chronic myeloid leukemia, CML); experiment: as above; format: cell-based, human; conditions: Homo sapiens, K562/Adr; 72 h, MTT
How it was run: as §1

[4] = test system: H9 (acute lymphoblastic leukemia, ALL); experiment: as above; format: cell-based, human; conditions: Homo sapiens; 72 h, MTT
How it was run: as §1

[5] = test system: Kasumi-1 (acute myeloid leukemia M2 type, AML-M2); experiment: as above; format: cell-based, human; conditions: Homo sapiens, Kasumi 1
How it was run: as §1

[6] = test system: Jurkat (acute lymphoblastic leukemia, ALL); experiment: as above; format: cell-based, human; conditions: Homo sapiens, Jurkat; 72 h, MTT
How it was run: as §1

[7] = test system: A549 (human lung cancer); experiment: Solid tumor cell growth inhibition, MTT, 72 h (Example 7); format: cell-based; conditions: Homo sapiens; 72 h, MTT, A549
How it was run: (§2)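 4000 cells/well in DMEM high glucose with 10% FBS pre-cultured 24 h at 37 °C, 5% CO2, then exposed to tetrandrine derivatives at various concentrations for 72 h. Viability measured by MTT, expressed as % of untreated control.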

[8] = test system: Becap37 (human breast cancer cell); experiment: as above; format: cell-based; conditions: Homo sapiens; 72 h, MTT, Becap-37
How it was run: as §2

[9] = test system: RKO (human colon adenocarcinoma cell); experiment: as above; format: cell-based; conditions: Homo sapiens; 72 h, MTT, RKO
How it was run: as §2

[10] = test system: MGC 803 (human gastric cancer cell); experiment: as above; format: cell-based; conditions: Homo sapiens
How it was run: as §2

[11] = test system: Huh7 (human liver cancer cell); experiment: as above; format: cell-based; conditions: Homo sapiens; 72 h, MTT, Huh-7
How it was run: as §2

[12] = test system: CaES-17 (esophageal cancer cell); experiment: as above; format: cell-based, human; conditions: Homo sapiens, CaEs17; 72 h, MTT, CAES-17
How it was run: as §2

[13] = test system: PC-3 (prostate cancer); experiment: as above; format: cell-based, human; conditions: Homo sapiens; 72 h, MTT, PC-3
How it was run: as §2

[14] = test system: PANC-1 (pancreatic cancer); experiment: as above; format: cell-based, human; conditions: Homo sapiens; 72 h, MTT, PANC-1
How it was run: as §2

[15] = test system: MG63 (osteosarcoma); experiment: as above; format: cell-based, human; conditions: Homo sapiens; 72 h, MTT, MG-63
How it was run: as §2

| IC50 [1] [µg/mL] | IC90 [1] [µg/mL] | IC50 [2] [µg/mL] | IC90 [2] [µg/mL] | IC50 [3] [µg/mL] | IC90 [3] [µg/mL] | IC50 [4] [µg/mL] | IC90 [4] [µg/mL] | IC50 [5] [µg/mL] | IC90 [5] [µg/mL] | IC50 [6] [µg/mL] | IC90 [6] [µg/mL] | IC50 [7] [µg/mL] | IC90 [7] [µg/mL] | IC50 [8] [µg/mL] | IC90 [8] [µg/mL] | IC50 [9] [µg/mL] | IC90 [9] [µg/mL] | IC50 [10] [µg/mL] | IC90 [10] [µg/mL] | Structure (SMILES) | other results |
| --- | --- | --- | --- | --- | --- | --- | --- | --- | --- | --- | --- | --- | --- | --- | --- | --- | --- | --- | --- | --- | --- |
| 0.05 (≈ 0.0654 µM) | 1.11 (≈ 1.45 µM) | > 16 | > 16 | 1.49 (≈ 1.95 µM) | 5.99 (≈ 7.83 µM) | 1.3 (≈ 1.7 µM) | 2.4 (≈ 3.14 µM) | 1.06 (≈ 1.39 µM) | 3.64 (≈ 4.76 µM) | 1.88 (≈ 2.46 µM) | 7.85 (≈ 10.3 µM) | 4 (≈ 5.23 µM) | 14.6 (≈ 19.1 µM) | 3.09 (≈ 4.04 µM) | 8.39 (≈ 11 µM) | 0.82 (≈ 1.07 µM) | 2.04 (≈ 2.67 µM) | 2.22 (≈ 2.9 µM) | 10 (≈ 13.1 µM) | COc1ccc2cc1Oc1ccc(cc1)C[C@H]1c3cc(c(OC)cc3CCN1C)Oc1c(OC)c(OC)c(CN3CCN(CCO)CC3)c3c1[C@H](C2)N(C)CC3 [BS-TE-334] | IC50 [11]: 2.55 µg/mL (≈ 3.33 µM); IC90 [11]: 4.38 µg/mL (≈ 5.73 µM); IC50 [12]: 2.35 µg/mL (≈ 3.07 µM); IC90 [12]: 21.5 µg/mL (≈ 28.1 µM); IC50 [13]: 3.35 µg/mL (≈ 4.38 µM); IC90 [13]: 6.05 µg/mL (≈ 7.91 µM); IC50 [14]: 3.99 µg/mL (≈ 5.22 µM); IC90 [14]: 11 µg/mL (≈ 14.4 µM); IC50 [15]: 0.84 µg/mL (≈ 1.1 µM); IC90 [15]: 2.44 µg/mL (≈ 3.19 µM) |
| 0.18 (≈ 0.249 µM) | 0.999 (≈ 1.38 µM) | 1.07 (≈ 1.48 µM) | 2.87 (≈ 3.96 µM) | 0.98 (≈ 1.35 µM) | 2.39 (≈ 3.3 µM) | 1.93 (≈ 2.67 µM) | 3.23 (≈ 4.46 µM) | 0.66 (≈ 0.912 µM) | 1.8 (≈ 2.49 µM) | 2.24 (≈ 3.09 µM) | 4 (≈ 5.53 µM) | 2.36 (≈ 3.26 µM) | 6.66 (≈ 9.2 µM) | 1.99 (≈ 2.75 µM) | 4.12 (≈ 5.69 µM) | 1.29 (≈ 1.78 µM) | 2.45 (≈ 3.38 µM) | 2.34 (≈ 3.23 µM) | 5.54 (≈ 7.65 µM) | COCCCNCc1c2c3c(c(OC)c1OC)Oc1cc4c(cc1OC)CCN(C)[C@H]4Cc1ccc(cc1)Oc1cc(ccc1OC)C[C@@H]3N(C)CC2 [BS-TE-340] | IC50 [11]: 2.52 µg/mL (≈ 3.48 µM); IC90 [11]: 4.85 µg/mL (≈ 6.7 µM); IC50 [12]: 1.83 µg/mL (≈ 2.53 µM); IC90 [12]: 7.21 µg/mL (≈ 9.96 µM); IC50 [13]: 3.43 µg/mL (≈ 4.74 µM); IC90 [13]: 4 µg/mL (≈ 5.53 µM); IC50 [14]: 3.61 µg/mL (≈ 4.99 µM); IC90 [14]: 5.72 µg/mL (≈ 7.9 µM); IC50 [15]: 0.6 µg/mL (≈ 0.829 µM); IC90 [15]: 1.19 µg/mL (≈ 1.64 µM) |
| 0.05 (≈ 0.0627 µM) | 0.7 (≈ 0.878 µM) | 1.18 (≈ 1.48 µM) | 3.06 (≈ 3.84 µM) | 0.68 (≈ 0.853 µM) | 2.38 (≈ 2.99 µM) | 1.62 (≈ 2.03 µM) | 2.75 (≈ 3.45 µM) | 2.24 (≈ 2.81 µM) | 6.95 (≈ 8.72 µM) | 1.9 (≈ 2.38 µM) | 5.27 (≈ 6.61 µM) | 3.54 (≈ 4.44 µM) | 12 (≈ 15 µM) | 6.96 (≈ 8.73 µM) | 8.17 (≈ 10.3 µM) | 2.25 (≈ 2.82 µM) | 3.24 (≈ 4.07 µM) | 1.1 (≈ 1.38 µM) | 2.88 (≈ 3.61 µM) | COc1ccc2cc1Oc1ccc(cc1)C[C@H]1c3cc(c(OC)cc3CCN1C)Oc1c(OC)c(OC)c(CN3CCN(c4ccccc4)CC3)c3c1[C@H](C2)N(C)CC3 [BS-TE-343] | IC50 [11]: 2.14 µg/mL (≈ 2.69 µM); IC90 [11]: 4.85 µg/mL (≈ 6.09 µM); IC50 [12]: 2.09 µg/mL (≈ 2.62 µM); IC90 [12]: 8.09 µg/mL (≈ 10.2 µM); IC50 [13]: 2.72 µg/mL (≈ 3.41 µM); IC90 [13]: 4.28 µg/mL (≈ 5.37 µM); IC50 [14]: 2.84 µg/mL (≈ 3.56 µM); IC90 [14]: 4.84 µg/mL (≈ 6.07 µM); IC50 [15]: 1.15 µg/mL (≈ 1.44 µM); IC90 [15]: 2.47 µg/mL (≈ 3.1 µM) |
| 0.09 (≈ 0.121 µM) | 1 (≈ 1.35 µM) | 1.14 (≈ 1.53 µM) | 4.78 (≈ 6.43 µM) | 1.45 (≈ 1.95 µM) | 5.7 (≈ 7.67 µM) | 1.33 (≈ 1.79 µM) | 2.97 (≈ 4 µM) | 1.96 (≈ 2.64 µM) | 7.37 (≈ 9.92 µM) | 1.82 (≈ 2.45 µM) | 9.94 (≈ 13.4 µM) | 9.94 (≈ 13.4 µM) | > 16 | 3.84 (≈ 5.17 µM) | 13.6 (≈ 18.3 µM) | 1.77 (≈ 2.38 µM) | 3.83 (≈ 5.16 µM) | 1.93 (≈ 2.6 µM) | 5.53 (≈ 7.44 µM) | COc1ccc2cc1Oc1ccc(cc1)C[C@H]1c3cc(c(OC)cc3CCN1C)Oc1c(OC)c(OC)c(CNCc3cccnc3)c3c1[C@H](C2)N(C)CC3 [BS-TE-348] | IC50 [11]: 3.05 µg/mL (≈ 4.11 µM); IC90 [11]: 8 µg/mL (≈ 10.8 µM); IC50 [12]: 2.3 µg/mL (≈ 3.1 µM); IC90 [12]: 14.5 µg/mL (≈ 19.6 µM); IC50 [13]: 4.44 µg/mL (≈ 5.98 µM); IC90 [13]: 8.36 µg/mL (≈ 11.3 µM); IC50 [14]: 4.55 µg/mL (≈ 6.12 µM); IC90 [14]: 13.9 µg/mL (≈ 18.7 µM); IC50 [15]: 1.52 µg/mL (≈ 2.05 µM); IC90 [15]: 4.06 µg/mL (≈ 5.46 µM) |
